# Earlier results in patent US20260345597A1, “LONG-ACTING AND SUSTAINED-RELEASE PREPARATION COMPOSITION OF LUMATEPERONE AND PREPARATION METHOD THEREOF” (SICHUAN KELUN PHARMACEUTICAL RESEARCH INSTITUTE CO., LTD., priority 2023, published 2026).
# System: patients with schizophrenia
# Conditions: background
smiles,measurement,setting,value
CN1CCN2c3c(cccc31)[C@@H]1CN(CCCC(=O)c3ccc(F)cc3)CC[C@@H]12 [lumateperone],adverse reactions such as weight gain and abnormal lipid metabolism,,less likely to cause adverse reactions such as weight gain and abnormal lipid metabolism
same,effect on symptoms of schizophrenia,patients with schizophrenia,"alleviating positive symptoms while improving negative symptoms, depressive symptoms, and social functioning"
same,safety and tolerability profile,patients with schizophrenia,superior safety and tolerability profiles
